Source: US7084168B2, “Indoline derivatives” (Wyeth, priority 1999, dated 2006)
Several values for one entry are separate records, joined by “and”; a condition that tells them apart may be missing. Equal values may be shown once.

system: not given; assay: not given; settings: not given

Compound | melting point
COc1cccc(-c2ccc3c(c2)C(C)(C)C(=O)N3)c1 [Example 3, 5-(3-Methoxy-phenyl)-3,3-dimethyl-1,3-dihydro-indol-2-one] | 157 to 158 °C
N#Cc1cncc(-c2ccc3c(c2)C2(CCCCC2)C(=O)N3)c1 [Example 17, 5-(1′,2′-Dihydro-2′-oxospiro[cyclohexane-1,3′-[3H]indol]-5′-yl)-3-pyridine carbonitrile] | 232 to 234 °C
O=C1Nc2ccccc2C12CCCC(c1cccc(F)c1)C2 (centres unmarked) [Example 21, 5-(3-Fluorophenyl)spiro[cyclohexane-1,3′-[3H]indol]-2′(1′H)-one] | 171 to 172 °C
O=C1Nc2ccc(-c3cccc(O)c3)cc2C12CCCCC2 [Example 33, 5′-(3-Hydroxyphenyl)spiro[cyclohexane-1,3′-[3H]indol]-2′(1′H)-one] | 213 to 216 °C
CCOC(OCC)N1C(=O)C2(CCCCC2)c2cc(-c3cc(F)cc(C#N)c3)ccc21 [Example 50, 3-(1′-Diethoxymethyl-1′,2′-dihydro-2′-oxospiro[cyclohexane-1,3′-[3H]indol]-5′-yl)-5-fluorobenzonitrile] | 146 °C
O=C1Nc2ccc(-c3ccc(C=NO)c(F)c3)cc2C12CCCCC2 [Example 64, 2-fluoro-4-(1′,2′-Dihydro-2′-oxospiro[cyclohexane-1,3′-[3H]indol]-5′-yl) benzaldehyde oxime] | 240 to 242 °C
O=C1Nc2ccc(-c3cccc(C=NO)c3F)cc2C12CCCCC2 [Example 68, 2-fluoro-3-(1′,2′-Dihydro-2′-oxospiro[cyclohexane-1,3′-[3H]indol]-5′-yl) benzaldehyde oxime] | 213 to 217 °C
N#CCc1cccc(-c2ccc3c(c2)C2(CCCCC2)C(=O)N3)c1 [Example 81, 3-(1′,2′-Dihydro-2′-oxospiro[cyclohexane-1,3′-[3H]indol]-5′-yl)phenylacetonitrile] | 190 to 193 °C
CC1(C)C(=O)Nc2ccc(-c3cc(F)cc(C#N)c3)cc21 [Example 82, 3-(3,3-Dimethyl-2-oxo-2,3-dihydro-1H-indol-5-yl)-5-fluoro-benzonitrile] | 231.2 to 232.3 °C

system: rat uterine decidualization; assay: Rat decidualization assay; assay type: in vivo; settings: decrease in EC50 progesterone induced decidual response in rat, p.o.; individual studies
Method: 1. Rat Decidualization Assay
The materials and methods used in tins assay are as follows.
The animals are treated once daily for seven days.
Uteri are removed and trimmed of fat.
Decidual response: [(D-C)/C]×100%

Compound | IC50
CC#C[C@]1(O)CC[C@H]2[C@@H]3CCC4=CC(=O)CCC4=C3[C@@H](c3ccc(N(C)C)cc3)C[C@@]21C [RU486] | 0.21 mg/kg, p.o. and 0.14 mg/kg, p.o.

same assay, conditions: rat decidual response, s.c.; average of dose-response curves

Compound | Estimated average EC50
C#C[C@]1(O)CC[C@H]2[C@@H]3CCC4=CC(=O)CC[C@@H]4[C@H]3C(=C)C[C@@]21CC [3-Ketodesogestrel] | 0.10 mg/kg, s.c.
